According to patent US20240287135A1, “ANTIMICROBIAL PEPTIDE OR PEPTIDE DERIVATIVE, SUBSTITUTE, AND COMPOSITION THEREOF, AND PREPARATION METHOD AND APPLICATION OF COMPOSITION” (QC BIO-TECHNOLOGY (SHENZHEN) CO., LTD., priority 2021, published 2024):
Ends that are not written are not given here.

Experiments:
[1] = test system: Jurkat cell line (leukemia lymphocytes); assay: Killing of the AMP for leukemia lymphocytes; assay type: cell-based; settings: 20 μL of 1 μg/mL AMP, 10^5 cells, 10 min
Method: Jurkat cell line (leukemia lymphocytes) was taken. 20 μL of a solution of 1 μg/mL AMP of SEQ ID NO: 10 was mixed with 10^5 cells to allow a reaction for 10 min, and a resulting mixture was centrifuged at 1,000 rpm for 3 min.

RNA viruses = assay: Killing of the AMP for RNA viruses (RT-PCR after infection of 293T); assay type: cell-based; settings: supernatant mixed with equal amount of 200 μg/mL AMP for 15 min; 293T infected 12 h; control 1.7×10^7
Method: The plasmids pNL4.3Δ, pVSV-G, p-enhancer, and lipo2000 each were used to transfect 293T, then the cells were cultivated at 37° ° C. for two days, a culture supernatant was taken and centrifuged to remove organelle impurities, and 500 μL of a cell supernatant was mixed with an equal amount of 200 μg/mL SEQ ID NO: 8 to allow a reaction for 15 min. In a control group, PBS was used instead of SEQ ID NO: 8. The filter centrifugation (Millipore Amicon Ultra-15) was used to remove the AMP, thereby eliminating a killing effect of the AMP itself on cells. A sample to be tested was used to infect the 293Tcell line, and then the cell line was cultivated at 37° C. for 12 h. The 293T cell line was recovered, and the RT-PCR method was used to determine the infection difference between live viruses for the cells. The control group and the experimental group had the same experimental environment, but the amino acid sequence of SEQ ID NO: 8 of the present application was added in the experimental group.

oral bacteria = assay: Inhibition on oral bacteria (mouthwash from the elderly, sheep blood agar); assay type: cell-based; settings: 30 min, anaerobic 37 °C 4 d
Method: Mouthwash was taken from the elderly and divided into 4 parts of equal amounts, and the 4 parts each were mixed with a solution of 2 mg/mL SEQ ID NO: 8 at different amounts for 30 min and then evenly coated on plates with sheep blood agar, where A: PBS (control), B: 2 μL, C: 10 μL, and D: 20 μL; and resulting mixtures each were anaerobically cultivated at 37 °C for 4 d, and the number of colonies on each plate was observed.

K562 cells = assay: Killing of the AMP for tumor cells (FCM PI kit); assay type: cell-based; settings: 10 ng, 20 ng and 40 ng of AMP
Method: K562 cells were cultivated, a same amount of K562 cells was taken and mixed with 10 ng, 20 ng, and 40 ng of the AMP of SEQ ID NO: 8 to allow a reaction, and apoptotic cells were determined by a flow cytometry (FCM) PI kit.

E. coli = E. coli inhibition test (colony count on agarose plate); assay type: cell-based, Escherichia coli; settings: for number of E. coli clones on plate: AMP 200 μg/mL mixed 1:1 with bacterial solution, 15 min room temperature, cultivated 37 °C 12 h, control 251 clones
Method: The 39 AMPs synthesized in Examples 1 to 39 each were subjected to an E. coli inhibition test. 30 μL of an E. coli bacterial solution was taken and mixed with 30 μL of each of the AMPs (concentration: 200 μg/mL), and 30 μL of a PBS isotonic solution was adopted to prepare a control; a reaction was allowed at room temperature for 15 min, and a resulting bacterial solution was evenly coated on an agarose plate and cultivated at 37 °C for 12 h; and the number of E. coli bacteria on each plate was counted and recorded.
In order to make the experimental results clearer, 6 experimental samples were taken for control analysis.

[2] = test system: HypG2 cell line (liver cancer cells); assay: Killing of the AMP for liver cancer cells; assay type: cell-based; settings: 20 μL of 1 μg/mL AMP, 10^5 cells, 10 min
Method: HypG2 cell line (liver cancer cells) was taken. 20 μL of a solution of 1 μg/mL AMP of SEQ ID NO: 15 was mixed with 10^5 cells to allow a reaction for 10 min, and a resulting mixture was centrifuged at 1,000 rpm for 3 min.

[3] = test system: K562 cell line (leukemia cells); assay: Killing of the AMP for leukemia cells; assay type: cell-based; settings: 20 μL of 1 μg/mL AMP, 10^5 cells, 10 min
Method: K562 cell line (leukemia cells) was taken. 20 μL of a solution of 1 μg/mL AMP of SEQ ID NO: 17 was mixed with 10^5 cells to allow a reaction for 10 min, and a resulting mixture was centrifuged at 1,000 rpm for 3 min.

Human RBCs = assay type: cell-based; settings: 20 μL of 1 μg/mL AMP, 2% RBCs, 10 min
Method: Human RBCs were taken. 20 μL of a solution of 1 μg/mL AMP of SEQ ID NO: 27 was mixed with 2% RBCs to allow a reaction for 10 min, and a resulting mixture was centrifuged at 1,000 rpm for 3 min.

## HKRAMPSIVKMIATLVLARKH (antimicrobial peptide, fully synthetic) [SEQ ID NO: 10]
[1]
  effect on leukemia lymphocytes (image): leukemia lymphocytes clump, and some are broken

## HAMGNMLKIMASAVLVRH [SEQ ID NO: 8, HAMGNMLKIMASAVLVRH]
RNA viruses
  active viral copy: 5×10^5
Oral bacteria; B: 2 μL of 2 mg/mL solution
  growth of oral bacteria on plate: a small number of bacteria grew
Oral bacteria; C: 10 μL of 2 mg/mL solution
  growth of oral bacteria on plate: no oral bacteria grew
Oral bacteria; D: 20 μL of 2 mg/mL solution
  growth of oral bacteria on plate: no oral bacteria grew
K562 cells
  cell death (apoptotic cells, FCM PI): cell death was proportional to the content of the AMP
E. coli
  number of E. coli clones on plate: 1 E. coli clones
E. coli; AMP 200 μg/mL, 15 min, plate count (FIG. 1)
  inhibitory effect on E. coli: most significant inhibitory effect

## HAMPNMLRIMASAVLVKR (antimicrobial peptide, fully synthetic) [SEQ ID NO: 7]
E. coli
  number of E. coli clones on plate: 216 E. coli clones

## HKAVGNMLKIASAVLVHK (antimicrobial peptide, fully synthetic) [SEQ ID NO: 6]
E. coli
  number of E. coli clones on plate: 226 E. coli clones

## RAMPNMLRIMASLVLARKH [SEQ ID NO: 15]
[2]
  effect on liver cancer cells (image): Liver cancer cells clump, and are broken and deformed

## RHAMGQMLRIMASLVLARK [SEQ ID NO: 17]
[3]
  effect on leukemia cells (image): leukemia cells clump

## KAVPNMLKIMASLVLARH [SEQ ID NO: 27, KAVPNMLKIMASLVLARH]
Human RBCs
  clumping of RBCs: human RBCs clump
  hemolysis: no obvious hemolysis

## HKAVPNMLHIASAVLVRH (antimicrobial peptide, fully synthetic) [SEQ ID NO: 5]
E. coli
  number of E. coli clones on plate: 236 E. coli clones
